Reference: PubChem BioAssay (NCI)
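Grown in 96-well plates, cells were treated for 48 hours with each compound at five concentrations. Insufficient inhibition: endpoint recorded as highest concentration tested. At the GI50, growth is halved. Definition used: TGI = concentration required for complete inhibition of growth.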

Key:
Test in all cases: NCI anticancer screen, dose series, 48 h
SF-295 CNS = system: SF-295 CNS
SK-MEL-5 melanoma = system: SK-MEL-5 melanoma
786-0 renal = system: 786-0 renal
HS 578T breast = system: HS 578T breast
SN12C renal = system: SN12C renal
M14 melanoma = system: M14 melanoma
UACC-62 melanoma = system: UACC-62 melanoma
SF-539 CNS = system: SF-539 CNS
SR leukemia = system: SR leukemia
MCF7 breast = system: MCF7 breast

Row | SMILES | TGI (SF-295 CNS) [µM] | TGI (SK-MEL-5 melanoma) [µM] | TGI (786-0 renal) [µM] | TGI (HS 578T breast) [µM] | TGI (SN12C renal) [µM] | TGI (M14 melanoma) [µM] | TGI (UACC-62 melanoma) [µM] | TGI (SF-539 CNS) [µM] | TGI (SR leukemia) [µM] | TGI (MCF7 breast) [µM] | GI50 (SF-295 CNS) [µM] | GI50 (SK-MEL-5 melanoma) [µM] | GI50 (786-0 renal) [µM] | GI50 (HS 578T breast) [µM] | GI50 (SN12C renal) [µM] | GI50 (M14 melanoma) [µM] | GI50 (UACC-62 melanoma) [µM] | GI50 (SF-539 CNS) [µM] | GI50 (MCF7 breast) [µM] | GI50 (SR leukemia) [µM]
1 | COc1cc(-c2oc3c(OC)c(O)c(OC)c(O)c3c(=O)c2OC)cc(OC)c1OC | > 100 | > 100 | > 100 | 64.9 | > 100 | > 100 | > 100 | > 100 | > 100 | > 100 | – | – | – | – | – | – | – | – | – | –
2 | CC(C)[C@@]12C[C@@H](OC(=O)COC(=O)c3ccccc3)[C@@](C)(O1)[C@@H]1CC[C@@H](C)[C@H]1[C@@H]2OC(=O)/C=C/c1ccccc1 | > 100 | > 100 | > 100 | 0.0701 | > 100 | > 100 | > 100 | > 100 | – | > 100 | > 100 | > 100 | 3.95 | 0.0135 | 7.35 | > 100 | > 100 | > 100 | > 65 | –
3 | CCCCCc1cc(/C=C2/N=C(c3ccc[nH]3)C=C2OC)[nH]c1C | < 0.0282 | 0.0422 | < 0.0459 | 0.0191 | 0.844 | < 0.034 | 0.03 | 0.177 | – | 0.0988 | – | – | – | – | – | – | – | – | – | –
4 | Cc1cc(O)ccc1C1(c2ccc(O)cc2C)OC(=O)c2ccccc21 | 31.7 | 32.1 | 34 | 46.3 | 39.9 | 37.1 | 35.9 | 33.5 | > 100 | 36.5 | 16.2 | 18 | 16.8 | 18.9 | 19.5 | 18.3 | 18 | 17.4 | 18.1 | 30.3
5 | CC(=O)OC(COc1ccc2c(c1)[n+]([O-])nc(N)[n+]2[O-])CN1CCCCC1 (centres undefined) | – | 14.6 | 36.6 | – | 40.3 | 38.7 | – | 39 | 70.1 | 65.8 | – | – | – | – | – | – | – | – | – | –
6 | CCN1CCN(Cc2ccc(Nc3ncc(F)c(-c4cc(F)c5nc(C)n(C(C)C)c5c4)n3)nc2)CC1 | 9.08 | 10.3 | 13.2 | 15.3 | 12.6 | 11.5 | 14.2 | 15.7 | 6.92 | 10.4 | 0.0882 | 0.392 | 4.74 | 0.745 | 5.55 | 3.6 | 6.39 | 7.39 | 0.0241 | 0.101
7 | CO/N=C(/C)COc1ccc2c(c1)oc(=O)c1cc(OC)ccc12 | > 100 | > 100 | > 100 | > 100 | > 100 | > 100 | > 100 | > 100 | – | > 100 | 82.4 | > 100 | > 100 | > 100 | > 100 | > 100 | > 100 | > 100 | > 100 | –
8 | O=C(O)C1=Cc2cccc3cccc(c23)C1=O | > 100 | > 100 | > 100 | – | > 100 | > 100 | > 100 | – | > 100 | – | – | – | – | – | – | – | – | – | – | –
